Data as given in patent EP1203770A1 (priority 1992, dated 1994).
Like-named read-outs stand apart in the source and are kept apart here.

Target: T1, HIV-1 protease (Human immunodeficiency virus type 1 group M subtype B, UniProt P04585)
T1 construct: The protease (or proteinase), consisting of only 99 amino acids, is among the smallest enzymes known
Assay: In vitro HIV protease inhibitory assay (HIV Protease FITC Assay)
Type: biochemical
Conditions: for inhibition at 0.123 µM / inhibition at 0.37 µM / inhibition at 1.1 µM / inhibition at 3.3 µM / inhibition at 10 µM / inhibition at 30 µM: read-out: HIV-1 Protease % Inhib
In short: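 Biotin/FITC-labelled peptide substrate cleaved by HIV-1 protease for 1 h at room temperature in the dark, in 0.1 M sodium acetate pH 5.5, 1.0 M NaCl, 0.05% NP-40. Uncleaved substrate captured on avidin beads and separated by filtration; fluorescence gave % inhibition.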

| SMILES | inhibition at 0.123 µM (HIV-1 Dose 0.123 uM) | inhibition at 0.37 µM (HIV-1 Dose 0.370 uM) | inhibition at 1.1 µM (HIV-1 Dose 1.100 uM) | inhibition at 3.3 µM (HIV-1 Dose 3.300 uM) | inhibition at 10 µM (HIV-1 Dose 10.000 uM) | inhibition at 30 µM (HIV-1 Dose 30.000 uM) | Ki (read-out: HIV-1 FITC Ki) | Ki | inhibition at 0.123 µM | inhibition at 0.37 µM | inhibition at 1.1 µM | inhibition at 3.3 µM | inhibition at 10 µM | inhibition at 30 µM |
| --- | --- | --- | --- | --- | --- | --- | --- | --- | --- | --- | --- | --- | --- | --- |
| CCCCC1(Cc2ccccc2)CC(O)=C(C(C=Cc2ccccc2)c2ccccc2)C(=O)O1 (centres unmarked) [Example 217, 2H-Pyran-2-one, 6-butyl-5,6-dihydro-3-(1,3-diphenyl-2-propenyl)-4-hydroxy-6-phenylmethyl-] | < 10% | < 10% | < 10% | 33.1% | 62.4% | 69.1% | – | – | – | – | – | – | – | – |
| CCCCC1(Cc2ccccc2)CC(O)=C(C(CCc2ccccc2)c2ccccc2)C(=O)O1 (centres unmarked) [Example 218, 2H-Pyran-2-one, 6-butyl-5,6-dihydro-3-(1,3-diphenylpropyl)-4-hydroxy-6-phenylmethyl-] | < 10% | < 10% | 21.2% | 46% | 59.3% | 58.2% | – | – | – | – | – | – | – | – |
| C=CC(C1=C(O)CC(CCCC)(Cc2ccccc2)OC1=O)c1ccccc1 (centres unmarked) [Example 219, 2H-Pyran-2-one, 6-butyl-5,6-dihydro-4-hydroxy-6-phenylmethyl-3-(1-phenyl-2-propenyl)-] | < 10% | < 10% | 35.3% | 65.6% | 79.7% | 90.2% | – | – | – | – | – | – | – | – |
| CCCCC1(Cc2ccccc2)CC(O)=C(C(CC)c2ccccc2)C(=O)O1 (centres unmarked) [Example 220, 2H-Pyran-2-one, 6-butyl-5,6-dihydro-4-hydroxy-6-phenylmethyl-3-(1-phenylpropyl)-] | < 10% | < 10% | 21.3% | 51.6% | 68.4% | 62.2% | – | – | – | – | – | – | – | – |
| CCC(Cc1ccccc1)c1cc(O)c(C(c2cccc(NC(=O)[C@H](C)NC(=O)OC(C)(C)C)c2)C2CC2)c(=O)o1 (stereo partly drawn) [Example 221, 3-(α-Cyclopropyl-meta-(tert-butyloxycarbonyl-L-alanylamino)benzyl)-6-(α-ethylphenethyl)-4-hydroxy-2H-pyran-2-one] | 43.1% | 72.1% | 87.3% | 102% | 108% | 101% | 14.6 nM | – | – | – | – | – | – | – |
| CCC(Cc1ccccc1)c1cc(O)c(C(c2cccc(NC(=O)[C@H](Cc3cn(S(=O)(=O)c4ccc(C)cc4)cn3)NC(=O)OC(C)(C)C)c2)C2CC2)c(=O)o1 (stereo partly drawn) [Example 222, 3-(α-Cyclopropyl-meta-(N-α-tert-butyloxycarbonyl-N-im-p-toluenesulfonyl-L-histidylamino)benzyl)-6-(α-ethylphenethyl)-4-hydroxy-2H-pyran-2-one] | 19% | 51.7% | 75.8% | 91% | 98.3% | 95.8% | 18.5 nM | – | – | – | – | – | – | – |
| CCC(Cc1ccccc1)c1cc(O)c(C(c2cccc(NS(=O)(=O)c3ccc(Cl)cc3)c2)C2CC2)c(=O)o1 (stereo not drawn) [Example 224, 3-(α-Cyclopropyl-meta-(4-chlorophenylsulfonylamino)benzyl)-6-(α-ethylphenethyl)-4-hydroxy-2H-pyran-2-one] | – | – | – | – | – | – | – | 14.7 nM | 46.9% | 76.9% | 99.6% | 97.1% | 110% | 105% |
| CCC(Cc1ccccc1)c1cc(O)c(C(c2cccc(NC(=O)CC[C@H](NC(=O)OCc3ccccc3)C(=O)OCc3ccccc3)c2)C2CC2)c(=O)o1 (stereo partly drawn) [Example 225, 3-(α-Cyclopropyl-meta-(N-benzyloxycarbonyl-O-α-benzyl-L-glutamylamino)benzyl)-6-(α-ethylphenethyl)-4-hydroxy-2H-pyran-2-one] | < 10% | < 10% | < 10% | 21% | 30.6% | 35.5% | – | – | – | – | – | – | – | – |
| CCC(Cc1ccccc1)c1cc(O)c(C(c2cccc(NC(=O)[C@H](Cc3c[nH]cn3)NC(=O)OC(C)(C)C)c2)C2CC2)c(=O)o1 (stereo partly drawn) [Example 226, 3-(α-Cyclopropyl-meta-(N-α-tert-butyloxycarbonyl-L-histidylamino)benzyl)-6-(α-ethylphenethyl)-4-hydroxy-2H-pyran-2-one] | – | – | – | – | – | – | 4 nM | – | 73.4% | 93.9% | 106% | 104% | 101% | 98.3% |
| CCC(Cc1ccccc1)c1cc(O)c(C(c2cccc(NC(=O)c3ccc(C#N)cc3)c2)C2CC2)c(=O)o1 (centres unmarked) [Example 227] | < 10% | 19.6% | 49.2% | 80.2% | 89.8% | 85.4% | – | – | – | – | – | – | – | – |
| CCC(Cc1ccccc1)c1cc(O)c(C(c2cccc(NS(=O)(=O)c3cccc4cccnc34)c2)C2CC2)c(=O)o1 (stereo not drawn) [Example 229, 3-(α-Cyclopropyl-meta-(8-quinolinesulfonylamino)benzyl)-6-(α-ethylphenethyl)-4-hydroxy-2H-pyran-2-one] | 52.2% | 95.9% | 106% | 106% | 113% | 102% | 3.5 nM | – | – | – | – | – | – | – |
